In article PMC2119350 (The Journal of Experimental Medicine, 1992):

Tests used:
[1] = biological target: I-Ed (Mus musculus, UniProt P01904+P01915); settings: pH 5 as compared with pH 7; cited from earlier work
[2] = biological target: I-Ak (Mus musculus, UniProt P01910+P06343); test: Peptide binding immunoassay; settings: 250 μM unlabeled HEL(46-61) vs biotin-HEL(46-61), 68 h

Row | nonspecific signal remaining with unlabeled competitor [2] | Substance | apparent affinity [1] | apparent concentration (number) of peptide-binding sites [1] | effect on dissociation [1] | rate of association [1]
1 | – | GMNAWVAWRNR.CKGTDVY [HEL(104-120)] | increased | increased | no measurable effect | increased
2 | < 10 % of maximal absorbance | NTDGSTDYGILQINSR [HEL(46-61)] | – | – | – | –
